{
  "source": "patent US20060167229A1",
  "about": "“Biologically active peptide conjugates” (priority 2002, published 2006)",
  "key": {"[1]": {"test_system": "S180 sarcoma", "experiment": "Growth of transplanted S180 sarcoma", "assay_type": "in vivo, BALB/c mice", "details": "controls: IL-2, IFN-γ 3 × 10^5 IU/kg, cyclophosphamide 20 mg/kg; saline 1.29 ± 0.50", "procedure": "(§1) Intraperitoneal injection, once per day. […] Treatment of all groups with testing substance lasted for 30 days or until the animal died unless otherwise specified.\nStock S180 sarcoma cells were incubated in DMEM/F12 medium supplemented with 10% fetal bovine serum, 37° C., 5% CO2 for 72 hrs, then washed 3-4 times with Hank's solution at room temperature. Adjust the cell concentration to 1-2×10^9 per litre with Hank's solution. […] The mice were killed by cervical vertebra dislocation. Vigorously growing and non-disrupted tumor masses were harvested and washed clean with sterile saline. The tissue was dispersed in saline to a homogenous cell suspension, in a ratio of 1 g tissue to 4 ml saline. The sarcoma bearing mice model was prepared with an injection of 0.2 ml cell suspension through the armpit. Administration of test substance treatment started as described in section Method 1.\n2.2 The Tumor Growth Inhibition Index was Calculated According to the Following Formula: Tumor growth inhibition index=(mean tumor weight of control group−mean tumor weight of treatment group)÷mean tumor weight of control group 3."}, "[2]": {"test_system": "L1210 leukemia", "experiment": "Survival of mice with transplanted L1210 leukemia", "assay_type": "in vivo, DBA/2 mice", "details": "controls: IL-2, IFN-γ 3 × 10^5 IU/kg, cyclophosphamide 20 mg/kg; saline 16.6 ± 5.6", "procedure": "as §1\nStock L1210 cells were incubated in DMEM/F12 medium supplemented with 10% fetal bovine serum, 37° C./5% CO2 for 72 hrs, then washed 3-4 times with Hank's solution, and adjusted to […]. 0.1 ml of the cell suspension was implanted into the abdominal cavity of several healthy DBA mice for 6-8 days. The mice were then killed by cervical vertebra dislocation and their ascitic fluid collected aseptically. The cell concentration of the collected ascitic fluid was adjusted to 1×10^5 per ml with Hank's solution. 0.1 ml of the cell suspension was implanted into each of the testing animal and the survival data of the animals recorded. Treatment started in the testing animals as described in section Method 1. Mean survival day was obtained by the Kaplan-meier method in the Survival option of the SPSS software. If the animal survived longer than the experiment, the survival days was entered as the duration of the experiment. The survival index was calculated according to the following formula: Survival index=(mean survival days of treatment group−mean survival days of control group)÷mean survival days of control group 6. The Effect of Peptides on the Humoral Immunity of C57BL/6 Mice Bearing Transplanted B16 Melanoma and that on the Metastatic Potential of the Inoculated Melanoma Cells"}, "[3]": {"test_system": "Masugi nephritis rat model", "experiment": "Masugi nephritis rat model", "details": "for urine protein level: 24 h urine"}, "[4]": {"test_system": "anti-SRBC antibody", "experiment": "Sheep Red Blood Cell (SRBC) hemolysis test, antibody formation", "assay_type": "in vivo, BALB/c mice", "details": "for anti-SRBC antibody formation, X ± SD (Unit): healthy mice, SRBC day 12 (IFN-γ, IL-2 3×10^5 IU/kg/day), saline 32 ± 7", "method_in_brief": "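Antibody formation was read as haemolysis: 500-fold diluted serum, collected on day 16 after intraperitoneal SRBC (0.2 ml, day 12), was mixed with 2% SRBC plus complement for 10 min at 37° C. Supernatant haemoglobin measured with Drabkin reagent at OD540, indexed against a reference SRBC lysate ×500.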"}, "[5]": {"test_system": "NK cell", "experiment": "NK cell cytotoxicity activity test (spleen cells of treated mice against YAC-1 target cells, MTT)", "assay_type": "in vivo, BALB/c mice", "method_in_brief": "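YAC-1 target cells (1×10^5/ml) mixed with splenocytes (4×10^6/ml) from mice given test substances i.p. daily for 15 days (10 mice/group). Effector-only and target-only wells served as controls. MTT added at 1 mg/ml for 4 h at 37 °C; absorbance read at 570/630 nm.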"}, "[6]": {"test_system": "spleen", "experiment": "Immunity organ weight test, spleen index", "assay_type": "in vivo, BALB/c mice", "procedure": "(§2) One day after the last test substance administration (day 16), the liver, spleen, and thymus gland were separated and blotted dry with filter paper and weighed. The phagocytosis index α was calculated as below: α=(^3√{square root over ( )}K)(W÷WLS)\nSpleen index (%)=(spleen weight/body weight)×100%"}, "[7]": {"test_system": "thymus gland", "experiment": "Immunity organ weight test, thymus gland index", "assay_type": "in vivo, BALB/c mice", "details": "for weight of thymus gland (thymus gland index), X ± SD (%): healthy mice, saline 0.12 ± 0.02", "procedure": "as §2\nThymus gland index (%)=(thymus weight/body weight)×100%"}, "[8]": {"test_system": "mononuclear phagocyte", "experiment": "Carbon particle clearance test, phagocytosis function", "assay_type": "in vivo, BALB/c mice", "parameters": "key to X ± SD (phagocytotic index): α = cube root of K × (body weight ÷ liver+spleen weight)", "procedure": "On the next day after the last test substance administration (day 16), the mice were injected with […] body weight India ink (5 times dilution with normal saline) from the tail vein.\nOne minute and five minutes after Indian ink injection, 20 μl blood was obtained from the eye canthus with a heparinized tubing. The blood was mixed with 2 ml 0.1% w/v Na2CO3 and then OD680 nm obtained. The outline clear index K was calculated by the following formula: K=(lgA1−lgA2)÷(t2−t1)\nas §2"}, "[9]": {"details": "statistically significant difference from saline in any of the dosage groups 0.5-500 μg/kg/day"}},
  "note": "Entries after “also recorded” stand apart in the source; their conditions may differ. Marks after values point to notes of the source that are not given here.",
  "data": [
    {"compound": "O=P1(N(CCCl)CCCl)NCCCO1", "note": "(centres unmarked) [Cyclophosphamide, reference compound]", "values": [
      {"measurement": "Tumor weight", "setting": "[1]", "value": "0.68 ± 0.32", "unit": "g"},
      {"measurement": "Survival days", "setting": "[2]", "value": "24.0 ± 5.3", "unit": "days"}
    ]},
    {"compound": "Phe Gln Gln Met (FQQM; printed: Phe Gln Gln Met) [CMS030]", "values": [
      {"measurement": "urine protein level", "setting": "[3]; Week 1, peptides 50 μg/kg/day, hydrocortisone 3.3 mg/kg/day i.p., placebo 22.9 ± 22, normal 1.7 ± 1.3", "value": "5.4 ± 3.4", "unit": "mg"},
      {"measurement": "urine protein level", "setting": "[3]; Week 2, peptides 50 μg/kg/day i.p., hydrocortisone dose halved after first week, placebo 17.2 ± 14.5, normal 2.3 ± 1.1", "value": "9.5 ± 16.2", "unit": "mg"},
      {"measurement": "urine protein level", "setting": "[3]; Week 3, peptides 50 μg/kg/day i.p., hydrocortisone dose halved after first week, placebo 20.2 ± 29.0, normal 0.4 ± 0.2", "value": "2.4 ± 1.5", "unit": "mg"},
      {"measurement": "spleen index", "setting": "[3]; after three weeks of treatment, peptides 50 μg/kg/day i.p., placebo 4.8 ± 1.1, normal 2.4 ± 0.1", "value": "3.0 ± 0.5 ×10^−3"},
      {"measurement": "Serum creatinine level", "setting": "[3]; after three weeks of treatment, peptides 50 μg/kg/day i.p., placebo 265 ± 212, normal 80 ± 1", "value": "93 ± 1", "unit": "µmol/L"},
      {"measurement": "renal pathological microscopic examination", "setting": "[3]; peptides 50 μg/kg/day i.p. 3 weeks, 6 heaviest kidneys per group", "value": "all pathological parameters of all rats were normal"},
      {"measurement": "anti-SRBC antibody formation, X ± SD (Unit)", "setting": "[4]; peptide 0.5 μg/kg/day i.p. 15 days", "value": "19 ± 7", "unit": "Unit"},
      {"measurement": "anti-SRBC antibody formation, X ± SD (Unit)", "setting": "[4]; peptide 5 μg/kg/day i.p. 15 days", "value": "158 ± 37*^@^ Unit"},
      {"measurement": "anti-SRBC antibody formation, X ± SD (Unit)", "setting": "[4]; peptide 50 μg/kg/day i.p. 15 days", "value": "141 ± 33*^@^ Unit"},
      {"measurement": "effect on the synthesis of anti-SRBC antibody upon the antigenic challenge (summary)", "setting": "[4]; [9]", "value": "enhance; also recorded: inhibit"},
      {"measurement": "NK cell cytotoxic activity, X ± SD (%)", "setting": "[5]; healthy mice, peptide 500 μg/kg/day i.p. 15 days (IFN-γ, IL-2 3×10^5 IU/kg/day), saline 63 ± 9", "value": "91 ± 5*^@^ %"},
      {"measurement": "effect on the cytotoxic activity of NK cells (summary)", "setting": "[5]; [9]", "value": "increase"},
      {"measurement": "weight of spleen (spleen index), X ± SD (%)", "setting": "[6]; Table 30, healthy mice, peptide 5 μg/kg/day i.p. 15 days, saline 0.53 ± 0.05", "value": "0.64 ± 0.09", "unit": "%"},
      {"measurement": "effect on the weight of the spleen (summary)", "setting": "[6]; [9]", "value": "increase"},
      {"measurement": "weight of thymus gland (thymus gland index), X ± SD (%)", "setting": "[7]; peptide 0.5 μg/kg/day i.p. 15 days (IFN-γ, IL-2 3×10^5 IU/kg/day)", "value": "0.24 ± 0.05*^@^ %"},
      {"measurement": "weight of thymus gland (thymus gland index), X ± SD (%)", "setting": "[7]; peptide 5 μg/kg/day i.p. 15 days (IFN-γ, IL-2 3×10^5 IU/kg/day)", "value": "0.23 ± 0.07*^ %"},
      {"measurement": "weight of thymus gland (thymus gland index), X ± SD (%)", "setting": "[7]; peptide 50 μg/kg/day i.p. 15 days (IFN-γ, IL-2 3×10^5 IU/kg/day)", "value": "0.25 ± 0.04*^@^ %"},
      {"measurement": "weight of thymus gland (thymus gland index), X ± SD (%)", "setting": "[7]; peptide 500 μg/kg/day i.p. 15 days (IFN-γ, IL-2 3×10^5 IU/kg/day)", "value": "0.30 ± 0.03*^@^ %"},
      {"measurement": "effect on the weight of the thymus gland (summary)", "setting": "[7]; [9]", "value": "increase"},
      {"measurement": "X ± SD (phagocytotic index)", "setting": "[8]; healthy mice, peptide 50 μg/kg/day i.p. 15 days (IFN-γ, IL-2 3×10^5 IU/kg/day), saline 5.1 ± 0.6", "value": "6.3 ± 0.5"},
      {"measurement": "effect on the phagocytotic activity of mononuclear phagocyte (summary)", "setting": "[8]; [9]", "value": "enhance"}
    ]}
  ]
}
